Measurements taken from US8871738B2, “Fused bicyclic oxazolidinone CETP inhibitor” (Merck Sharp & Dohme Corp., priority 2011, dated 2014).

System: not given
Test: not given
Conditions: patients treated with anacetrapib along with baseline statin therapy compared with just a statin; cited from earlier work

For `COc1cc(F)c(C(C)C)cc1-c1ccc(C(F)(F)F)cc1CN1C(=O)O[C@H](c2cc(C(F)(F)F)cc(C(F)(F)F)c2)[C@@H]1C` [anacetrapib], which “decrease of LDL-C” value is on record?
The value was 40%.

What about the “increase of HDL-C” value of the same molecule?
The value was 138%.

Molecular target: endogenous CETP from serum (Homo sapiens (Human), UniProt P11597)
Sequence (P11597 18-493 limits assumed): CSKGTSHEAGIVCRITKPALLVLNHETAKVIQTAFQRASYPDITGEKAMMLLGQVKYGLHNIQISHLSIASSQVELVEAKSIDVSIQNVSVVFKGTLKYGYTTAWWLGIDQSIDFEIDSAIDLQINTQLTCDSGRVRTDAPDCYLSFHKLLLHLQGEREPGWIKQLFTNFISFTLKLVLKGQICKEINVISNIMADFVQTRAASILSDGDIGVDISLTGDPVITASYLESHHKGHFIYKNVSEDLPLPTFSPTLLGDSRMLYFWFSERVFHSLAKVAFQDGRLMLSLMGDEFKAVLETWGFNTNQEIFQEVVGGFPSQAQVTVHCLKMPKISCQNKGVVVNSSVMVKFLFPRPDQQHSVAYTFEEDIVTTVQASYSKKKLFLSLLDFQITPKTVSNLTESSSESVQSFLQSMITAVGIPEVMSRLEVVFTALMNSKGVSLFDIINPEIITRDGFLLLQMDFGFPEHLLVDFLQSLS
Test: RTA assay in 95% human serum (CETP-catalyzed CE and TG transfer, endogenous CETP)
Format: biochemical
Conditions: RTA assay in 95% human serum; read-out: IC50

Which IC50 does the source give for `COc1ncc(Cl)cc1-c1ccc(C(F)(F)F)cc1[C@@H]1CC[C@H]2[C@@H](c3cc(C(F)(F)F)cc(C(F)(F)F)c3)OC(=O)N12` [Example 11, (1R,5S,7aS)-1-[3,5-bis(trifluoromethyl)phenyl]-5-[2-(5-chloro-2-methoxypyridin-3-yl)-5-(trifluoromethyl)phenyl]tetrahydro-1H-pyrrolo[1,2-c][1,3]oxazol-3-one] here?
The IC50 was 294 nM.

With `COc1cc(F)c(C(C)C)cc1-c1ccc(C(F)(F)F)cc1[C@@H]1CCC[C@H]2[C@@H](c3cc(C(F)(F)F)cc(C(F)(F)F)c3)OC(=O)N12` [Example 43, (1R,5S,8aS)-1-[3,5-bis(trifluoromethyl)phenyl]-5-[4′-fluoro-2′-methoxy-5′-(1-methylethyl)-4-(trifluoromethyl)biphenyl-2-yl]hexahydro[1,3]oxazolo[3,4-a]pyridin-3-one] as the molecule, how does the IC50 read?
The IC50 was 1210 nM.

With `COc1ncc(C(F)(F)F)cc1-c1ccc(C(F)(F)F)cc1[C@@H]1CC[C@H]2[C@@H](c3cc(C(F)(F)F)cc(C(F)(F)F)c3)OC(=O)N12` [Example 10, (1R,5S,7aS)-1-[3,5-bis(trifluoromethyl)phenyl]-5-{2-[2-methoxy-5-(trifluoromethyl)pyridin-3-yl]-5-(trifluoromethyl)phenyl}tetrahydro-1H-pyrrolo[1,2-c][1,3]oxazol-3-one] as the molecule, how does the IC50 read?
The IC50 was 371 nM.

Which IC50 does the source give for `COc1ccc(C)cc1-c1ccc(C(F)(F)F)cc1[C@@H]1CC[C@H]2[C@@H](c3cc(C(F)(F)F)cc(C(F)(F)F)c3)OC(=O)N12` [Example 13, (1R,5S,7aS)-1-[3,5-bis(trifluoromethyl)phenyl]-5-[2′-methoxy-5′-methyl-4-(trifluoromethyl)biphenyl-2-yl]tetrahydro-1H-pyrrolo[1,2-c][1,3]oxazol-3-one] here?
Its IC50 is 263 nM.

With `COc1ncc(-c2ccc(C(=O)O)cc2C)cc1-c1ccc(C(F)(F)F)cc1[C@@H]1CC[C@H]2[C@@H](c3cc(C)cc(C(F)(F)F)c3)OC(=O)N12` [Example 55, 4-{6-methoxy-5-[2-{(1R,5S,7aS)-1-[3-methyl-5-(trifluoromethyl)phenyl]-3-oxotetrahydro-1H-pyrrolo[1,2-c][1,3]oxazol-5-yl}-4-(trifluoromethyl)phenyl]pyridin-3-yl}-3-methylbenzoic acid] as the molecule, how does the IC50 read?
The IC50 was 85 nM.

For `COc1ccc(-c2cnc(C(=O)O)cc2C)cc1-c1ccc(F)cc1[C@@H]1CC[C@H]2[C@@H](c3cc(C(F)(F)F)cc(C(F)(F)F)c3)OC(=O)N12` [Example 38, 5-(2′-{(1R,5S,7aS)-1-[3,5-bis(trifluoromethyl)phenyl}-3-oxotetrahydro-1H-pyrrolo[1,2-c][1,3]oxazol-5-yl}-4′-fluoro-6-methxoybiphenyl-3-yl)-4-methylpyridine-2-carboxylic acid], which IC50 is on record?
Its IC50 is 1740 nM.

Which IC50 does the source give for `COc1ccc(C#N)cc1-c1ccc(C(F)(F)F)cc1[C@@H]1CC[C@H]2[C@@H](c3cc(C(F)(F)F)cc(C(F)(F)F)c3)OC(=O)N12` [Example 9, 2′-{(1R,5S,7aS)-1-[3,5-bis(trifluoromethyl)phenyl]-3-oxotetrahydro-1H-pyrrolo[1,2-c][1,3]oxazol-5-yl}-6-methoxy-4′-(trifluoromethyl)biphenyl-3-carbonitrile] here?
The IC50 was 224 nM.

Which IC50 does the source give for `O=C1O[C@H](c2cc(C(F)(F)F)cc(C(F)(F)F)c2)[C@@H]2CC[C@@H](c3cc(C(F)(F)F)ccc3-c3cc(F)ccc3F)N12` [Example 25, (1R,5S,7aS)-1-[3,5-bis(trifluoromethyl)phenyl]-5-[2′,5′-difluoro-4-(trifluoromethyl)biphenyl-2-yl]tetrahydro-1H-pyrrolo[1,2-c][1,3]oxazol-3-one] here?
Its IC50 is 104 nM.

For `O=C1O[C@H](c2cc(C(F)(F)F)cc(C(F)(F)F)c2)[C@@H]2CC[C@@H](c3cc(C(F)(F)F)ccc3C3=CCCC3)N12` [Example 22, (1R,5S,7aS)-1-[3,5-bis(trifluoromethyl)phenyl]-5-[2-cyclopent-1-en-1-yl-5-(trifluoromethyl)phenyl]tetrahydro-1H-pyrrolo[1,2-c][1,3]oxazol-3-one], which IC50 is on record?
Its IC50 is 56.6 nM.

For `O=C1O[C@H](c2cc(C(F)(F)F)cc(C(F)(F)F)c2)[C@@H]2CC[C@@H](c3cc(C(F)(F)F)ccc3-c3ccsc3)N12` [Example 18, (1R,5S,7aS)-1-[3,5-bis(trifluoromethyl)phenyl]-5-[2-thiophen-3-yl-5-(trifluoromethyl)phenyl]tetrahydro-1H-pyrrolo[1,2-c][1,3]oxazol-3-one], which IC50 is on record?
Its IC50 is 103 nM.

Which IC50 does the source give for `COc1ccc(-c2ccc(C(=O)O)cc2C)cc1-c1ccc(N(C)C)nc1[C@@H]1C=C[C@H]2[C@@H](c3cc(C(F)(F)F)cc(C(F)(F)F)c3)OC(=O)N12` [Example 47, 3′-[2-{(1R,5S,7aS)-1-[3,5-bis(trifluoromethyl)phenyl]-3-oxo-5,7a-dihydro-1H-pyrrolo[1,2-c][1,3]oxazol-5-yl}-6-(dimethylamino)pyridin-3-yl]-4′-methoxy-2-methylbiphenyl-4-carboxylic acid] here?
The IC50 was 491 nM.

With `O=C1O[C@H](c2cc(C(F)(F)F)cc(C(F)(F)F)c2)[C@@H]2CC[C@@H](c3cc(C(F)(F)F)ccc3-c3ccccc3Cl)N12` [Example 15, (1R,5S,7aS)-1-[3,5-bis(trifluoromethyl)phenyl]-5-[2′-chloro-4-(trifluoromethyl)biphenyl-2-yl]tetrahydro-1H-pyrrolo[1,2-c][1,3]oxazol-3-one] as the molecule, how does the IC50 read?
The IC50 was 453 nM.

For `Cc1cocc1-c1ccc(C(F)(F)F)cc1[C@@H]1CC[C@H]2[C@@H](c3cc(C(F)(F)F)cc(C(F)(F)F)c3)OC(=O)N12` [Example 16, (1R,5S,7aS)-1-[3,5-bis(trifluoromethyl)phenyl]-5-[2-(4-methylfuran-3-yl)-5-(trifluoromethyl)phenyl]tetrahydro-1H-pyrrolo[1,2-c][1,3]oxazol-3-one], which IC50 is on record?
The IC50 was 343 nM.

For `COc1cc(F)c(-c2ccc(C(=O)O)cc2C)cc1-c1cnc(C(F)(F)F)cc1[C@@H]1CC[C@H]2[C@@H](c3cc(C(F)(F)F)cc(C(F)(F)F)c3)OC(=O)N12` [Example 53, 5′-[4-{(1R,5S,7aS)-1-[3,5-bis(trifluoromethyl)phenyl]-3-oxotetrahydro-1H-pyrrolo[1,2-c][1,3]oxazol-5-yl}-6-(trifluoromethyl)pyridin-3-yl]-2′-fluoro-4′-methoxy-2-methylbiphenyl-4-carboxylic acid], which IC50 is on record?
Its IC50 is 191 nM.

Same assay, conditions: RTA assay, 95% human serum; read-out: RTA (95% HS)

With `COc1ccc(CCc2nnc(N)o2)cc1-c1ccc(C(F)(F)F)cc1[C@@H]1CCC[C@H]2[C@@H](c3cc(C(F)(F)F)cc(C(F)(F)F)c3)OC(=O)N12` [Example 82, (1R,5S,8aS)-5-{5′-[2-(5-amino-1,3,4-oxadiazol-2-yl)ethyl]-2′-methoxy-4-(trifluoromethyl)biphenyl-2-yl}-1-[3,5-bis(trifluoromethyl)phenyl]hexahydro[1,3]oxazolo[3,4-a]pyridin-3-one] as the molecule, how does the IC50 read?
The IC50 was 1320 nM.
